In US12097261B2, “CDK2 degraders and uses thereof” (Kymera Therapeutics, Inc., priority 2021, dated 2024):

Tests used:
Assay type in all cases: cell-based
[1] = biological target: T1, CDK1 (Homo sapiens, UniProt P06493); assay: CDK1 degradation by immunoblotting in OVCAR-8 cells; details: 24 h
T1 construct: endogenous in cells; host or cells: OVCAR-8
Method: (§1) CDK2 and CDK1 Degradation by Immunoblotting
(§2) Ovarian cancer cell line OVCAR-8 were cultured in 12-well plates in complete growth medium. A serial dilution of each compound was added to individual wells from a 2× stock solution, and cells were cultured for 24 hours. Cells were collected by centrifugation, and cell pellets lysed with addition of chilled RIPA buffer supplemented with protease/phosphatase inhibitors followed by incubation for 20 minutes on ice. Lysates were clarified by centrifugation and 5×SDS loading buffer was added to the supernatant followed by heating to 100° C. for 10 minutes. An aliquot of the samples were separated by SDS-PAGE and transferred to a nitrocellulose membrane. Immunoblotting was performed according to standard procedures using anti-CDK2 primary antibody (Abcam ab32147) at 1:1000 dilution and IRDye 800CW goat anti-Rabbit secondary antibody (LICOR) and imaged using a LICOR Odyssey instrument. Blots were stained with anti-beta-Actin primary antibody (Cell Signaling Technology mAb #4970) for normalization. The normalized CDK2/Actin values were calculated as a percent of DMSO treated cells and plotted to determine the concentration at which 50% of CDK2 signal is decreased (DC50). The determination of CDK1 degradation was determined similarly using anti-CDK1 primary antibody (Abcam ab131450).

[2] = biological target: T2, CDK2 (Homo sapiens, UniProt P24941); assay: CDK2 degradation by immunoblotting in OVCAR-8 cells; details: 24 h
T2 construct: endogenous in cells; host or cells: OVCAR-8
Method: as §1, §2

[3] = biological target: T3, CCNE1 (Homo sapiens, UniProt P24864+P24941); assay: CCNE1 degradation in MKN-1 cells by immunoblotting; details: 24 h, by WB, read-out: Cyclin E1 DC50, (MKN-1 by WB)
T3 construct: endogenous in cells; host or cells: MKN-1
Method: CCNE1 Degradation in MKN-1 Cells
Gastric cancer cell line MKN-1 were cultured in 6-well plates in complete growth medium. A serial dilution of each compound was added to individual wells from a 2× stock solution, and cells were cultured for 24 hours. Following 24-hr incubation, cells were lysed with addition of chilled RIPA buffer supplemented with protease/phosphatase inhibitors followed by incubation for 20 minutes on ice. Lysates were clarified by centrifugation and 5×SDS loading buffer was added to the supernatant followed by heating to 100° C. for 10 minutes. An aliquot of the samples were separated by SDS-PAGE and transferred to a nitrocellulose membrane. Immunoblotting was performed according to standard procedures using anti-CCNE1 primary antibody (Abcam #ab33911) at 1:1000 dilution and IRDye 800CW goat anti-Rabbit secondary antibody (LICOR) and imaged using a LICOR Odyssey instrument. Blots were stained with anti-beta-Actin primary antibody (Cell Signaling Technology mAb 43700) for normalization. The normalized CCNE1/Actin values were calculated as a percent of DMSO treated cells and plotted to determine the concentration at which 50% of CCNE1 signal is decreased.

T1 sequence (P06493 whole entry): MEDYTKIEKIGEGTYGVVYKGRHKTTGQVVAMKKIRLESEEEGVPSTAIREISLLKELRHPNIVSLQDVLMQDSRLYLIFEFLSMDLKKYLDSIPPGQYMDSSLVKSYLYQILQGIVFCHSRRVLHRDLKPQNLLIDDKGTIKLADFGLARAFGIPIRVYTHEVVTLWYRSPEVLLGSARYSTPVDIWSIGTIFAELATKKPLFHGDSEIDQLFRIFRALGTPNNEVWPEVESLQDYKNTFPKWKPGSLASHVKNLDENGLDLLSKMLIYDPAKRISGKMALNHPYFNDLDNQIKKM

SMILES	DC50 [1] [µM]	DC50 [2] [µM]	DC50 [3] [µM]
Cc1cc(S(=O)(=O)NCCOCCOCCOCCOCC(=O)N[C@H](C(=O)N2C[C@H](O)C[C@H]2C(=O)NCc2ccc(-c3scnc3C)cc2)C(C)(C)C)ccc1Nc1ncc2ccc(=O)n(C3CCCC3)c2n1 [I-139]	> 5	> 5	
Cc1cc(S(=O)(=O)NCCOC2CC3(C2)CN(Cc2ccc4c(c2)n(C)c(=O)n4C2CCC(=O)NC2=O)C3)ccc1Nc1ncc2ccc(=O)n(C3CCCC3)c2n1 (stereo not shown) [I-111]	1 to 5	0.01 to 0.1	
Cc1cc(S(=O)(=O)NCCOCCOCCOCCOCCCc2ccc3c(c2)n(C)c(=O)n3C2CCC(=O)NC2=O)ccc1Nc1ncc2cc(C(F)F)c(=O)n([C@@H]3CCC[C@@]3(C)O)c2n1 (stereo partly shown) [I-7]	> 5	< 0.01	
Cc1cc(S(=O)(=O)NCCOCCOCCOCCOCCCc2ccc3c(c2)n(C)c(=O)n3C2CCC(=O)NC2=O)ccc1Nc1ncc2c(C)cc(=O)n(C3CCCC3)c2n1 (stereo not shown) [I-138]	> 5	> 5	
CC(C)NC(=O)O[C@@H]1CC[C@H](c2cc(NC(=O)c3ccnn3CCOCCOCCOCCOCCCc3cccc4c3n(C)c(=O)n4C3CCC(=O)NC3=O)n[nH]2)C1 (stereo partly shown) [I-55]	> 5	0.01 to 0.1	
CC(C)NC(=O)O[C@@H]1CC[C@H](c2cc(NC(=O)c3cnn(CCOCCOCCOCCOCCCc4ccc5c(c4)n(C)c(=O)n5C4CCC(=O)NC4=O)c3)[nH]n2)C1 (stereo partly shown) [I-77]	> 5	0.1 to 1	
CC(C)NC(=O)O[C@@H]1CC[C@H](c2cc(NC(=O)c3ccnn3CCOCCOCCOCCOCCCc3ccc4c(c3)n(C)c(=O)n4C3CCC(=O)NC3=O)n[nH]2)C1 (stereo partly shown) [I-59]	> 5	0.01 to 0.1	
Cc1cc(S(=O)(=O)NCCOC2CCC3(CC2)CCN(CCCc2ccc4c(c2)n(C)c(=O)n4C2CCC(=O)NC2=O)CC3)ccc1Nc1ncc2ccc(=O)n(C3CCCC3)c2n1 (stereo not shown) [I-124]	1 to 5	< 0.01	
CC(C)NC(=O)O[C@@H]1CC[C@H](c2cc(NC(=O)c3cnn(CCCCCCCCCc4cccc5c4n(C)c(=O)n5C4CCC(=O)NC4=O)c3)[nH]n2)C1 (stereo partly shown) [I-92]	1 to 5	0.01 to 0.1	
Cc1cc(S(=O)(=O)NCCO[C@H]2CC[C@H](CN3CCC(c4ccc5c(c4)n(C)c(=O)n5C4CCC(=O)NC4=O)CC3)CC2)ccc1Nc1ncc2cc(Cl)c(=O)n(C3CCCC3)c2n1 (stereo partly shown) [I-108]	0.1 to 1	< 0.01	< 0.01
CC(C)NC(=O)O[C@@H]1CC[C@H](c2cc(NC(=O)c3cc(COCCCCCCCCCc4cccc5c4n(C)c(=O)n5[C@H]4CCC(=O)NC4=O)nn3C)n[nH]2)C1 [I-100]	0.1 to 1	< 0.01	
Cc1cc(S(=O)(=O)NCCOC2CC3(C2)CN(CC#Cc2ccc4c(c2)n(C)c(=O)n4C2CCC(=O)NC2=O)C3)ccc1Nc1ncc2ccc(=O)n(C3CCCC3)c2n1 (stereo not shown) [I-126]	1 to 5	< 0.01	
Cc1cc(S(=O)(=O)NCCOCCOCCOCCOCCCc2cccc3c2n(C)c(=O)n3C2CCC(=O)NC2=O)ccc1Nc1ncc(Br)c(Nc2cccc(F)c2C(N)=O)n1 (stereo not shown) [I-37, 2-((5-Bromo-2-((4-(N-(15-(1-(2,6-dioxopiperidin-3-yl)-3-methyl-2-oxo-2,3-dihydro-1H-benzo[d]imidazol-4-yl)-3,6,9,12-tetraoxapentadecyl)sulfamoyl)-2-methylphenyl)amino)pyrimidin-4-yl)amino)-6-fluorobenzamide]	1 to 5	0.01 to 0.1	
CN[C@@H](C)C(=O)N[C@H](C(=O)N1CCC[C@H]1c1nc(C(=O)c2cccc(OCCCCCCCCCCCn3cc(C(=O)Nc4cc([C@H]5CC[C@@H](OC(=O)NC(C)C)C5)n[nH]4)cn3)c2)cs1)C1CCCCC1 [I-148, (1R,3S)-3-(5-(1-(11-(3-(2-((S)-1-((S)-2-cyclohexyl-2-((S)-2-(methylamino)propanamido)acetyl)pyrrolidin-2-yl)thiazole-4-carbonyl)phenoxy)undecyl)-1H-pyrazole-4-carboxamido)-1H-pyrazol-3-yl)cyclopentyl isopropylcarbamate]	1 to 5	1 to 5	
Cc1cc(S(=O)(=O)NCCOCCOCCCc2ccc3c(c2)n(C)c(=O)n3C2CCC(=O)NC2=O)ccc1Nc1ncc2c(n1)N(C1CCCC1)C(=O)C21CC1 (stereo not shown) [I-150]	> 5	> 5	
Cc1cc(S(=O)(=O)NCCO[C@H]2CC[C@H](N(C)CC3CCN(c4ccc5c(c4)n(C)c(=O)n5C4CCC(=O)NC4=O)CC3)CC2)ccc1Nc1ncc2ccc(=O)n(C3CCCC3)c2n1 (stereo partly shown) [I-117]	0.1 to 1	< 0.01	< 0.01
CC(C)NC(=O)O[C@@H]1CC[C@H](c2cc(NC(=O)c3cnn(CCOCCOCCOCCCc4ccn5c(N6CCC(=O)NC6=O)cnc5c4)c3)n[nH]2)C1 [I-74]	> 5	0.1 to 1	
CC(C)NC(=O)O[C@@H]1CC[C@H](c2cc(NC(=O)c3cnn(CCOCCOCCOCCCc4cccc5c4n(C)c(=O)n5C4CCC(=O)NC4=O)c3)n[nH]2)C1 (stereo partly shown) [I-72]	> 5	0.01 to 0.1	
Cc1cc(S(=O)(=O)N[C@H]2CC[C@H](OCCOCCCc3ccc4c(c3)n(C)c(=O)n4C3CCC(=O)NC3=O)CC2)ccc1Nc1ncc2ccc(=O)n(C3CCCC3)c2n1 (stereo partly shown) [I-110]	1 to 5	< 0.01	
CC(C)NC(=O)O[C@@H]1CC[C@H](c2cc(NC(=O)c3cnn(CCCCCCCCCC#Cc4cccc5c(N6CCC(=O)NC6=O)cncc45)c3)n[nH]2)C1 [I-67]	1 to 5	0.1 to 1	
Cc1cc(S(=O)(=O)NCCO[C@H]2CC[C@H](CN3CCC(c4ccc5c(c4)n(C)c(=O)n5C4CCC(=O)NC4=O)CC3)CC2)ccc1Nc1ncc2ccc(=O)n(C3CCCC3)c2n1 (stereo partly shown) [I-109]	0.1 to 1	< 0.01	< 0.01
CC(C)NC(=O)O[C@@H]1CC[C@H](c2cc(CC(=O)c3cnn(CCOCCOCCOCCCc4ccc5c(N6CCC(=O)NC6=O)cncc5c4)c3)[nH]n2)C1 [I-73]	> 5	0.1 to 1	
Cc1cc(S(=O)(=O)N2CCC(CN(C)C3CCN(c4cccc5c4n(C)c(=O)n5C4CCC(=O)NC4=O)CC3)CC2)ccc1Nc1ncc2ccc(=O)n(C3CCCC3)c2n1 (stereo not shown) [I-114]	1 to 5	< 0.01	
CC(C)NC(=O)O[C@@H]1CC[C@H](c2cc(NC(=O)c3cnn(CCCCCCCCCCCc4ccc5c(c4)n(C)c(=O)n5C4CCC(=O)NC4=O)c3)[nH]n2)C1 (stereo partly shown) [I-96]	> 5	0.01 to 0.1	
CC(C)NC(=O)O[C@@H]1CC[C@H](c2cc(CC(=O)c3cc(COCCCCCCCc4cccc5c4n(C)c(=O)n5C4CCC(=O)NC4=O)nn3C)[nH]n2)C1 (stereo partly shown) [I-101]	0.1 to 1	< 0.01	
CC(C)NC(=O)O[C@@H]1CC[C@H](c2cc(NC(=O)Cc3cnn(CCCCCCCc4ccc5c(c4)n(C)c(=O)n5C4CCC(=O)NC4=O)c3)n[nH]2)C1 (stereo partly drawn) [I-103, (1R,3S)-3-(3-(2-(1-(7-(1-(2,6-dioxopiperidin-3-yl)-3-methyl-2-oxo-2,3-dihydro-1H-benzo[d]imidazol-5-yl)heptyl)-1H-pyrazol-4-yl)acetamido)-1H-pyrazol-5-yl)cyclopentyl isopropylcarbamate]	> 5	0.01 to 0.1	
CC(C)NC(=O)O[C@@H]1CC[C@H](c2cc(NC(=O)c3cnn(CCCCCCCCCCCc4cccn5c(N6CCC(=O)NC6=O)cnc45)c3)n[nH]2)C1 [I-64]	1 to 5	0.01 to 0.1	
CC(C)NC(=O)O[C@@H]1CC[C@H](c2cc(NC(=O)c3cnn(CCCCCCCCCc4ccc5c(c4)n(C)c(=O)n5C4CCC(=O)NC4=O)c3)n[nH]2)C1 (stereo partly shown) [I-91]	> 5	0.01 to 0.1	
CC(C)NC(=O)O[C@@H]1CC[C@H](c2cc(NC(=O)c3cnn(CCOCCOCCOCCCc4ccc5c(c4)n(C)c(=O)n5C4CCC(=O)NC4=O)c3)n[nH]2)C1 (stereo partly shown) [I-75]	> 5	0.01 to 0.1	
